Entries after “also recorded” stand apart in the source; their conditions may differ. Like-named read-outs stand apart in the source and are kept apart here.
Legend:
[1] = set-up: method as in earlier work; conditions: dog; ref IB; cited from earlier work
[2] = system: CYP 2C8; set-up: method as in earlier work; conditions: at concentrations up to 50uM; ref IB; cited from earlier work
[3] = system: Lovo colorectal cancer xenograft; set-up: method as in earlier work; conditions: ref IB, cited from earlier work
[4] = set-up: method as in earlier work; conditions: human; ref IB; cited from earlier work
[5] = Phase I safety/tolerability, DLT and MTD: selumetinib + erlotinib 100 mg orally QD in patients with advanced solid tumors
[6] = system: panel of other kinases; set-up: method as in earlier work; conditions: ref IB; cited from earlier work
[7] = set-up: method as in earlier work; conditions: predominantly via an aneugenic mode of action; ref IB; cited from earlier work
[8] = system: cytochrome P450 (CYP)3A, 1A and 2C; set-up: method as in earlier work; conditions: human hepatocytes, preliminary in vitro data; ref IB; cited from earlier work
[9] = Pharmacokinetics alone and in combination, selumetinib + temsirolimus arm; type: in vivo, human; conditions: human, plasma, iv, geometric mean (% CV); for AUC(0-t): read-out: AUC(0–8); for AUC(0–12): read-out: AUC(0–12); for Cmax: read-out: Cmax
Procedure: (§1) PK parameters were derived using non-compartmental analysis. Cmax and tmax were determined by visual inspection of the plasma concentration-time profiles. AUC(0–12) was calculated by the linear trapezoidal rule. Where more than one maximum occurred, the reported value was assigned to the first occurrence.

[10] = system: CYP 2D6; set-up: method as in earlier work; conditions: at concentrations up to 50uM; ref IB; cited from earlier work
[11] = system: CYP1A2; set-up: method as in earlier work; conditions: at concentrations up to 50uM; ref IB; cited from earlier work
[12] = set-up: method as in earlier work; conditions: ref IB; cited from earlier work
[13] = cited from earlier work
[14] = set-up: method as in earlier work; conditions: AZD6244-related material, rat and mouse; ref IB; cited from earlier work
[15] = system: CYP 2C19; set-up: method as in earlier work; conditions: at concentrations up to 50uM; ref IB; cited from earlier work
[16] = system: HCT-116 human colorectal cancer xenograft; set-up: method as in earlier work; conditions: AZD6244 25 m/kg BD; docetaxel 15 mg/kg once weekly; ref IB; cited from earlier work
[17] = set-up: method as in earlier work; conditions: mouse, rat and monkey; dosed as free-base or Hyd-Sulfate; ref IB; cited from earlier work
[18] = set-up: method as in earlier work; conditions: mice, at dose levels that do not induce maternal toxicity, preliminary; ref IB; cited from earlier work
[19] = system: 3T3; set-up: method as in earlier work; conditions: 3T3 Neutral Red Uptake phototoxicity test; ref IB; cited from earlier work
[20] = ref Study ARRY-0401, cited from earlier work
[21] = system: breast cancer resistance protein (BCRP); set-up: method as in earlier work; conditions: ref IB; cited from earlier work
[22] = Pharmacokinetics alone and in combination, selumetinib + erlotinib arm
Procedure: as §1

[23] = set-up: method as in earlier work; conditions: either formulation of AZD6244; ref IB; cited from earlier work
[24] = system: SW620 human colorectal cancer xenograft; set-up: method as in earlier work; conditions: ref IB, cited from earlier work
[25] = system: CYP 3A4; set-up: method as in earlier work; conditions: at concentrations up to 50uM; ref IB; cited from earlier work
[26] = set-up: method as in earlier work; conditions: Minipig; ref IB; cited from earlier work
[27] = system: expressed CYP isoforms; set-up: method as in earlier work; conditions: ref IB; listed as AZD6244; cited from earlier work
[28] = set-up: method as in earlier work; conditions: mouse; ref IB; cited from earlier work
[29] = dosed alone, selumetinib 50 mg cohort (N = 25), temsirolimus 25 mg IV
[30] = dosed alone, selumetinib 75 mg cohort (N = 6), temsirolimus 25 mg IV
[31] = dosed in combination, selumetinib 50 mg BID (N = 22) + temsirolimus 25 mg IV
[32] = dosed in combination, selumetinib 75 mg BID (N = 5) + temsirolimus 25 mg IV

Structure (SMILES): Cn1cnc2c(F)c(Nc3ccc(Br)cc3Cl)c(C(=O)NOCCO)cc21 [Selumetinib]
- Protein binding [1]: 94.6%
- inhibition of CYP2C8 [2]: no inhibition
- Tumor growth inhibition as a % of control ([3]; AZD6244 25 mg/kg BD, Iressa 75 mg/kg QD): 40.2 % of control
- Tumor growth inhibition as a % of control ([3]; rapamycin experiment, usual monotherapy schedules, doses not given): 39 % of control
- Protein binding [4]: 98.4%
- protocol-defined MTD of selumetinib plus erlotinib (part A) ([5]; part A dose escalation, later not tolerated in part B): 50 mg BID
- selumetinib dose recommended for future phase II studies ([5]; plus erlotinib 100 mg QD): 100 mg QD
- MTD of selumetinib in combination with erlotinib ([5]; with erlotinib 100 mg QD): 100 mg QD
- activity against a panel of other kinases [6]: inactive, or only minimally active
- mouse micronucleus result [7]: increase in micronucleated immature erythrocytes (MIE)
- induction of cytochrome P450 (CYP)3A, 1A and 2C [8]: weak inducer
- AUC(0-t) [9, 29]: 1840 ng·h/mL
- AUC(0–12) [9, 29]: 2150 ng·h/mL
- Cmax [9, 29]: 666 ng/mL
- AUC(0-t) [9, 30]: 2990 ng·h/mL
- AUC(0–12) [9, 30]: 3370 ng·h/mL
- Cmax [9, 30]: 1240 ng/mL
- AUC(0-t) [9, 31]: 1840 ng·h/mL
- AUC(0–12) [9, 31]: 2130 ng·h/mL
- Cmax [9, 31]: 676 ng/mL
- AUC(0-t) [9, 32]: 2520 ng·h/mL
- AUC(0–12) [9, 32]: 2940 ng·h/mL
- Cmax [9, 32]: 887 ng/mL
- inhibition of CYP2D6 [10]: no inhibition
- inhibition of CYP1A2 [11]: no inhibition
- mutagenic or clastogenic potential in vitro [12]: no evidence of mutagenic or clastogenic potential
- maximum tolerated dose (MTD), monotherapy ([13]; first-in-human trial of selumetinib monotherapy): 75 mg BID
- recommended phase II monotherapy dose ([13]; in vivo): 75 mg BID
- binding to melanin [14]: no evidence of binding to melanin
- penetration into the CNS [14]: minimal
- inhibition of CYP2C19 [15]: no inhibition
- Tumor growth inhibition as a % of control [16]: 64.9 % of control
- accumulation on multiple dosing [17]: no/minimal accumulation
- reproductive toxicology [18]: adverse effects on embryofetal development and survival
- cytotoxicity in the presence of UV light [19]: enhanced
- time at which Cmax attained (median) ([20]; post-dose): approximately 1 hour
- half-life (t½), median ([20]; terminal elimination phase): approximately 11 hours
- interaction with breast cancer resistance protein (BCRP) [21]: substrate but not an inhibitor
- Cmax ([22]; geometric mean (% CV), dosed alone, selumetinib 50 mg cohort (N = 14), erlotinib 100 mg QD): 926.5 (69.10) ng/mL
- Cmax ([22]; geometric mean (% CV), dosed in combination, selumetinib 50 mg BID (N = 12) + erlotinib 100 mg QD): 1334 (51.16) ng/mL
- Cmax ([22]; geometric mean, QD cohorts, in combination, selumetinib 50 mg (N = 6) + erlotinib 100 mg QD): 942 ng/mL
- tmax ([22]; human, plasma, oral): 1.25 h
- AUC(0-t) ([22]; human, plasma, oral, 100 mg, AUC(0–8), geometric mean, QD cohorts, dosed alone, selumetinib 100 mg cohort (N = 6), erlotinib 100 mg QD): 4400 ng·h/mL
- AUC(0-t) ([22]; human, plasma, oral, 100 mg, AUC(0–12), geometric mean, QD cohorts, dosed alone, selumetinib 100 mg cohort (N = 6), erlotinib 100 mg QD): 5000 ng·h/mL
- Cmax ([22]; human, plasma, oral, 100 mg, Cmax, geometric mean, QD cohorts, dosed alone, selumetinib 100 mg cohort (N = 6), erlotinib 100 mg QD): 1800 ng/mL
- AUC(0-t) ([22]; human, plasma, oral, AUC(0–8), geometric mean (% CV), dosed alone, selumetinib 50 mg cohort (N = 14), erlotinib 100 mg QD): 2280 ng·h/mL
- AUC(0-t) ([22]; human, plasma, oral, AUC(0–8), geometric mean (% CV), dosed alone, selumetinib 75 mg cohort (N = 6), erlotinib 100 mg QD): 2860 ng·h/mL
- AUC(0-t) ([22]; human, plasma, oral, AUC(0–8), geometric mean (% CV), dosed in combination, selumetinib 50 mg BID (N = 12) + erlotinib 100 mg QD): 3640 ng·h/mL
- AUC(0-t) ([22]; human, plasma, oral, AUC(0–8), geometric mean (% CV), dosed in combination, selumetinib 75 mg BID (N = 6) + erlotinib 100 mg QD): 4350 ng·h/mL
- AUC(0-t) ([22]; human, plasma, oral, AUC(0–8), geometric mean, QD cohorts, dosed alone, selumetinib 50 mg cohort (N = 7), erlotinib 100 mg QD): 1900 ng·h/mL
- AUC(0-t) ([22]; human, plasma, oral, AUC(0–8), geometric mean, QD cohorts, dosed alone, selumetinib 150 mg cohort (N = 13), erlotinib 100 mg QD): 6780 ng·h/mL
- AUC(0-t) ([22]; human, plasma, oral, AUC(0–8), geometric mean, QD cohorts, in combination, selumetinib 50 mg (N = 6) + erlotinib 100 mg QD): 2600 ng·h/mL
- AUC(0-t) ([22]; human, plasma, oral, AUC(0–8), geometric mean, QD cohorts, in combination, selumetinib 100 mg (N = 6) + erlotinib 100 mg QD): 7070 ng·h/mL
- AUC(0-t) ([22]; human, plasma, oral, AUC(0–8), geometric mean, QD cohorts, in combination, selumetinib 150 mg (N = 12) + erlotinib 100 mg QD): 9190 ng·h/mL
- AUC(0-t) ([22]; human, plasma, oral, AUC(0–12), geometric mean (% CV), dosed alone, selumetinib 50 mg cohort (N = 14), erlotinib 100 mg QD): 2700 ng·h/mL
- AUC(0-t) ([22]; human, plasma, oral, AUC(0–12), geometric mean (% CV), dosed alone, selumetinib 75 mg cohort (N = 6), erlotinib 100 mg QD): 3200 ng·h/mL
- AUC(0-t) ([22]; human, plasma, oral, AUC(0–12), geometric mean (% CV), dosed in combination, selumetinib 50 mg BID (N = 12) + erlotinib 100 mg QD): 4010 ng·h/mL
- AUC(0-t) ([22]; human, plasma, oral, AUC(0–12), geometric mean (% CV), dosed in combination, selumetinib 75 mg BID (N = 6) + erlotinib 100 mg QD): 4830 ng·h/mL
- AUC(0-t) ([22]; human, plasma, oral, AUC(0–12), geometric mean, QD cohorts, dosed alone, selumetinib 50 mg cohort (N = 7), erlotinib 100 mg QD): 2130 ng·h/mL
- AUC(0-t) ([22]; human, plasma, oral, AUC(0–12), geometric mean, QD cohorts, dosed alone, selumetinib 150 mg cohort (N = 13), erlotinib 100 mg QD): 7740 ng·h/mL
- AUC(0-t) ([22]; human, plasma, oral, AUC(0–12), geometric mean, QD cohorts, in combination, selumetinib 100 mg (N = 6) + erlotinib 100 mg QD): 7760 ng·h/mL
- AUC(0-t) ([22]; human, plasma, oral, AUC(0–12), geometric mean, QD cohorts, in combination, selumetinib 150 mg (N = 12) + erlotinib 100 mg QD): 10500 ng·h/mL
- Cmax ([22]; human, plasma, oral, Cmax, geometric mean (% CV), dosed alone, selumetinib 75 mg cohort (N = 6), erlotinib 100 mg QD): 1050 ng/mL
- Cmax ([22]; human, plasma, oral, Cmax, geometric mean (% CV), dosed in combination, selumetinib 75 mg BID (N = 6) + erlotinib 100 mg QD): 1660 ng/mL
- Cmax ([22]; human, plasma, oral, Cmax, geometric mean, QD cohorts, dosed alone, selumetinib 50 mg cohort (N = 7), erlotinib 100 mg QD): 683 ng/mL
- Cmax ([22]; human, plasma, oral, Cmax, geometric mean, QD cohorts, dosed alone, selumetinib 150 mg cohort (N = 13), erlotinib 100 mg QD): 2450 ng/mL
- Cmax ([22]; human, plasma, oral, Cmax, geometric mean, QD cohorts, in combination, selumetinib 100 mg (N = 6) + erlotinib 100 mg QD): 2600 ng/mL
- Cmax ([22]; human, plasma, oral, Cmax, geometric mean, QD cohorts, in combination, selumetinib 150 mg (N = 12) + erlotinib 100 mg QD): 2810 ng/mL
- QTc prolongation [23]: no signal for QTc prolongation
- Tumor growth inhibition as a % of control ([24]; AZD6244 25 mg/kg BD, irinotecan 25 mg/kg once weekly, docetaxel 15 mg/kg once weekly): 74 % of control
- Tumor growth inhibition as a % of control ([24]; temozolamide experiment, usual monotherapy schedules, doses not given): 58 % of control
- inhibition of CYP3A4 [25]: no inhibition
- Protein binding [26]: 93.7%
- CYP isoforms metabolizing AZD6244 [27]: metabolized by CYP1A2; also recorded: also metabolized by CYP 2C19 and CYP 3A4
- Protein binding [28]: 98.9%

Source: publication PMC5613062 (Investigational New Drugs, 2017)
